# From patent US6514994B2, “Levobupivacaine and its use” (Darwin Discovery, Ltd., priority 1997, dated 2003)
# Columns and labels:
# [1] = tested on: guinea-pig papillary muscle; experiment: Developed force and action potential parameters in papillary muscle; conditions: for effect on developed force and action potential parameters at steady-state: equimolar concentrations
# Experimental: Contraction was measured in mycocytes and papillary muscle isolated from guinea-pig ventricle and pectinate muscle isolated from human right atrial appendage. Myocytes were isolated from guinea-pig left ventricle by an enzyme digestion procedure and placed in a chamber on the stage of an inverted microscope. Cells were superfused with Krebs-Henseleit buffer (KHB) at 30° C. and field stimulated at 1.0 Hz. Cell shortening was measured with a video camera and edge-etection system. Papillary and pectinate muscles were placed in KHB at 37° C. and field stimulated at 1.0 Hz. Isometric tension was recorded at maximum developed force (Lmax). Electrophysical parameters were recorded in papillary muscles superfused with KSB at 37° C. and stimulated at 1.0 Hz. Standard action potential parameters were recorded, i.e. maximum rate of rise of membrane potential (Vmax); action potential amplitude (APA); and action potential duration to 90% repolarisation (APD90). Developed force was measured by recording isometric tension in muscles stretched to 90% of Lmax.
# [2] = tested on: Pentobarbital-Anesthetized Swine; experiment: Intracoronary (LAD) injection cardiotoxicity model, lethal dose and QRS prolongation; format: in vivo; conditions: for lethal dose, median / lethal dose, range: LAD injection, death by VF; for lethal dose higher than that of B: injected into LAD or RCA
# Experimental: Reiz et al, Acta Anaesthesiol. Scand. (1989) 33:93-98, reports that in vivo cardiotoxicity of local anaesthetics can be evaluated without interference by central mechanisms in a highly reproducible model (Pentobarbital-Anesthetized Swine) where the drug is injected directly into a coronary artery. When local anesthetics are injected in the left anterior descending artery (LAD), death occurs consistently by ventricular fibrillation (VF). The aim of this study was to determine the lethal dose of each of the local anesthetics levobupivacaine (L), bupivacaine (B) and ropivacaine (R) as well as to compare their respective effects on the QRS interval of the precordial ECG.
# A total of 27 animals were randomized to receive a dose response injection of L, B or R into the LAD. A blinded randomized protocol was used. All calculations and exclusions were made prior to disclosure of treatment. The doses of each agent were 0.375, 0.75, 1.5, 3.0, 4.0 mg etc., in increments of 1 mg till death occurred. Each dose was made up in a volume of 3 ml plus the dead space of the catheter (1.2 ml), injected over 10 sec. The time between doses was 5 min, or longer, if ECG, blood pressure or heart rate had not returned to pre-injection controls. A complete 12-lead ECG was recorded on optical disk for later analysis. Statistical analysis was by ANOVA, Dunnett's and the Mann-Whitney-U test. Power analysis was performed (0.85 to 1.00).
# One animal died of myocardial infarction following acute embolization into the LAD. […] Of the animals injected into the LAD, 7 had received L, 7 B and 6 R. All deaths following LAD injection were by VF and deaths following RCA injection were by A-V dissociation. […] The difference between L and R at 50 msec prolongation was insignificant.
# [3] = tested on: adult patients, axillary brachial plexus; conditions: by comparison; cited from earlier work
# [4] = tested on: patients undergoing major abdominal surgery; experiment: Epidural anaesthesia in patients undergoing major abdominal surgery; format: in vivo, human; conditions: 0.75%
# Experimental: This study compared the efficacy, safety and pharmacokinetics of 0.75% levobupivacaine with 0.75% bupivacaine in 58 patients undergoing major abdominal surgery under epidural anaesthesia. Although 0.75% bupivacaine is no longer used in some situations (obstetrics) and 0.5% concentrations are usually adequate for lower extremity surgery, 0.75% is preferential for abdominal surgery because of the enhancement of motor blockade. Onset of sensory anaesthesia to T10 (mean˜15 minutes), time to peak block height (T5, 25-30 min), and abdominal muscle relaxation (RAM score 3-5) were equivalent between the groups. Duration of total sensory anaesthesia was statistically longer with 0.75% levobupivacaine (levobupivacaine—551 min, racemic bupivacaine—506 min).
# [5] = tested on: conscious, previously instrumented, adult sheep; experiment: Electrocardiological effects of i.v. infusion in conscious sheep; format: in vivo; conditions: for deaths: 150, 150 and 200 mg infused over 3 min, ventricular tachycardia and fibrillation; for convulsive dose (inducing ventricular arrhythmias): sheep, 3 min
# Experimental: The electrocardiological effects of bupivacaine and levobupivacaine were compared, in two groups of conscious, previously instrumented, adult sheep. Two cohorts of 7 animals were infused over 1 min with 6.25, 12.5, 18.75, 25 and 37.5 mg levobupivacaine and 12.5, 25 and 37.5 mg bupivacaine or over 3 min with 37.5, 50, 75, 100, 150 and 200 mg levobupivacaine and 37.5, 75, 100, 150 and 200 mg bupivacaine. […] Both drugs, at convulsive doses (75 mg bupivacaine, 100 mg levobupivacaine), induced ventricular arrhythmias; however, there was a higher threshold of toxicity with levobupivacaine. […] Inasmuch as levobupivacaine is reported to produce at least equivalent neural blockade to bupivacaine, it therefore offers a great margin of clinical safety.
# FIGS. 1 and 2 of the accompanying drawings show baseline record of ECG (left), S-T segment change (centre) and multiform ventricular tachycardia (right) after i.v. infusion (40 ml, 3 min) of 100 mg bupivacaine and then of 200 mg levobupivacaine, in the same sheep.
# [6] = Plasma kinetics after administration (summary statement); format: in vivo
# [7] = tested on: adult patients, axillary brachial plexus; experiment: Axillary brachial plexus neural blockade in patients with distal upper extremity orthopaedic surgery; format: in vivo, human
# Experimental: 20 adult patients scheduled for distal upper extremity orthopaedic surgical procedures with axillary brachial plexus neural blockade were studied. Patients received an axillaryblock using 50 ml of 0.5% levobupivacaine without epinephrine. Transarterial and/or nerve stimulator techniques were used to identify injection into the brachial plexus sheath. If after 10 min patients required supplemental local anaesthetic to produce anaesthesia in a single peripheral nerve distribution, an additional 10 ml of 0.5% levobupivacaine could be administered as a single peripheral nerve-block at the axilla or wrist. Patients were monitored for onset and duration of sensory and motor block using a 0-2 scale (0=no block, 1=partial block, 2=complete block) for each major nerve distribution (median, musculocutaneous, radius, ulnar). Time to onset of adequate anaesthesia for surgery, time to first request for post-operative analgesics, as well as any subjective or objective signs of local anaesthetic toxicity were also collected. Blood samples for PK analysis were drawn from 10 patients.
# sensory block = conditions: 0.25%; cited from earlier work
# [8] = tested on: myocytes isolated from guinea-pig left ventricle; experiment: Cell shortening (contraction) in isolated ventricular myocytes; format: cell-based; conditions: cardiac myocytes, P<0.05
# Experimental: Contraction was measured in mycocytes and papillary muscle isolated from guinea-pig ventricle and pectinate muscle isolated from human right atrial appendage.
# Myocytes were isolated from guinea-pig left ventricle by an enzyme digestion procedure and placed in a chamber on the stage of an inverted microscope. Cells were superfused with Krebs-Henseleit buffer (KHB) at 30° C. and field stimulated at 1.0 Hz. Cell shortening was measured with a video camera and edge-etection system. Papillary and pectinate muscles were placed in KHB at 37° C. and field stimulated at 1.0 Hz. Isometric tension was recorded at maximum developed force (Lmax).
# The mean drug concentration producing a 50% reduction (CI-50) in cell shortening was calculated from cumulative dose-response curves. All data were analysed by an unpaired t-test (for control data comparison) or one-way ANOVA (for comparison between drug groups), assuming a Gaussian distribution.
smiles,measurement,setting,value
CCCCN1CCCCC1C(=O)Nc1c(C)cccc1C (racemic) [bupivacaine],effect on developed force and action potential parameters at steady-state,[1],No significant differences
same,"lethal dose, median",[2],5 mg
same,"lethal dose, range",[2],4 to 6 mg
same,recommended dose,[3],2 mg/kg
same,duration of total sensory anaesthesia,[4],506 min
same,"onset of sensory anaesthesia to T10, mean",[4],~15 min
same,deaths,[5],Three animals died within 10 min
same,"potency in inducing an arrhythmia, relative to levobupivacaine","[5]; in vivo, iv",slightly more potent
same,"potency in sustaining the arrhythmia, relative to levobupivacaine","[5]; in vivo, iv",more than three times more potent
same,convulsive dose (inducing ventricular arrhythmias),"[5]; in vivo, iv",75 mg
"CCCN1CCCC[C@H]1C(=O)Nc1c(C)cccc1C [ropivacaine, reference compound]",effect on developed force and action potential parameters at steady-state,[1],No significant differences
same,"lethal dose, median",[2],8 mg
same,"lethal dose, range",[2],4 to 10 mg
same,QRS prolongation,"[2]; at the 6 mg dose, 100% approximately 60 msec",≤ 100%
same,lethal dose higher than that of B,[2],approximately 50%
"CCCCN1CCCC[C@H]1C(=O)Nc1c(C)cccc1C [levobupivacaine, (S)-1-butyl-N-(2,6-dimethylphenyl)-2-piperidinecarboxamide]",effect on developed force and action potential parameters at steady-state,[1],No significant differences
same,"recovery of contractility on washout with drug-free perfusate, vs bupivacaine","[1]; guinea-pig papillary muscle, P<0.05",significantly greater
same,"lethal dose, median",[2],8 mg
same,"lethal dose, range",[2],7 to 9 mg
same,difference in dose vs B to obtain the same degree of QRS prolongation,[2]; at 40 msec QRS prolongation,25%
same,difference between L and R in dose for QRS prolongation,[2]; at 50 msec prolongation,insignificant
same,difference in dose vs B to obtain the same degree of QRS prolongation,[2]; at 90 msec QRS prolongation,47%
same,lethal dose higher than that of B,[2],approximately 50%
same,time to reach Tmax compared with the same dose of racemate,[6]; in vivo,takes longer to reach Tmax
same,plasma clearance rate compared with bupivacaine,[6]; within 0-4 hours post-administration,faster plasma clearance rate
same,duration of total sensory anaesthesia,[4],551 min
same,"onset of sensory anaesthesia to T10, mean",[4],~15 min
same,"duration of sensory/motor block in at least two nerve distributions, range","[7]; 0.5%, 50-60 ml",14 to 24 h
same,mean duration of sensory/motor block in at least two nerve distributions,"[7]; 0.5%, 50-60 ml",20 h
same,sensory and motor blockade in all four peripheral nerve distributions immediately post-operatively,"[7]; 0.5%, 50-60 ml",All patients had complete sensory and motor blockade
same,time to request for supplemental analgesics,"[7]; 0.5%, 50-60 ml",15 h
same,"time to request for supplemental analgesics, range","[7]; 0.5%, 50-60 ml",9 to 24 h
same,patients requiring general anaesthesia due to inadequate sensory/motor block at 30 min post-injection,"[7]; 0.5%, 50-60 ml, 20 patients",2 patients
same,patients with adequate onset of sensory/motor blockade for surgical anaesthesia within 30 min,"[7]; 0.5%, 50-60 ml, 20 patients",18 patients
same,signs or symptoms of local anaesthetic toxicity,[7]; 3-5 mg/kg,No patient demonstated any subjective or objective signs or symptoms of local anaesthetic toxicity
same,well tolerated doses for axillary block,"[7]; axillary block, patients",3 to 5 mg/kg
same,deaths,[5],No animals died
same,"ventricular arrhythmias induced, compared with the same doses of bupivacaine",[5]; in vivo,"Significantly fewer, as well as less deleterious"
same,convulsive dose (inducing ventricular arrhythmias),"[5]; in vivo, iv",100 mg
same,sensory block efficacy and duration compared with bupivacaine,sensory block,comparable efficacy to bupivacaine
same,"recovery of contractility on washout with drug-free perfusate, vs bupivacaine",[8],significantly greater
